Results on 31 compounds are retold here after ChEMBL document CHEMBL5050843, “Amide substituted thiazoles as protein secretion inhibitors” (2019).

SMILES strings stand for the structures.

The nature of assay [1]: Inhibition of constitutively active PR1ss-Gluc secretion in human Flp-In-T-REx-293 cells measured by Gaussia luciferase reporter gene method. The format is functional, cell-based.
Assay [2] can be described thus: Inhibition of constitutively active VCAMss-Gluc secretion in human Flp-In-T-REx-293 cells measured by Gaussia luciferase reporter gene method. The format is functional, cell-based.

With `CC(C)(C)c1csc(NC(=O)Cc2cccc3ccccc23)n1`, the IC50 in assay [1] was above 25 µM; in assay [2], 3.45 µM.
Regarding `CC(C)(C)c1csc(NC(=O)CC2CCCCC2)n1`, the IC50 in assay [1] is above 25 µM; in assay [2] it was 6.09 µM.
On to `CC(C)(C)c1csc(NC(=O)C2CCCC2)n1`, for which the half-inhibitory concentration (IC50) was above 25 µM in assay [1] and 17 µM in assay [2].
In the case of `CC(C)(C)c1csc(NC(=O)Cc2cn(CC3CCCCC3)c3ccc(Cl)cc23)n1`, the half-inhibitory concentration (IC50) in assay [1] was above 25 µM; in assay [2], 0.714 µM.
Turning to `Cc1ccc(C(=O)Nc2nc(C(C)(C)C)cs2)s1`, the IC50 in assay [1] was above 25 µM; in assay [2], 7.65 µM.
As to `CC(C)(C)c1csc(NC(=O)Cc2cc(Cl)cc(C(F)(F)F)c2)n1`, the IC50 in assay [1] was above 25 µM; in assay [2], 1.54 µM.
As for `CC(C)(C)c1csc(NC(=O)COC2CCCCC2)n1`, the IC50 in assay [1] and in assay [2] was above 25 µM in each case.
In the case of `CC(C)(C)c1csc(NC(=O)c2cc3cc(Br)ccc3s2)n1`, the IC50 in assay [1] and in assay [2] was above 25 µM throughout.
Consider `CC(C)(C)c1csc(NC(=O)c2ccc3c(c2)CCCO3)n1`, for which the IC50 is above 25 µM in assay [1] and 6.09 µM in assay [2].
Turning to `CC(C)(C)c1csc(NC(=O)c2cc3cc(-c4ccc(Cl)cc4)ccc3s2)n1`, the values for the IC50 in assay [1] and in assay [2] were above 25 µM and 14 µM, respectively.
Regarding `CC(C)(C)c1csc(NC(=O)c2ccccc2)n1`, the values for the half-inhibitory concentration (IC50) in assay [1] and in assay [2] were above 80 µM and 10.4 µM, respectively.
For the compound `CC(C)c1cccc(C(=O)Nc2nc(C(C)(C)C)cs2)c1`, the IC50 in assay [1] and in assay [2] was above 25 µM each time.
With `C[C@H](C(=O)Nc1nc(C(C)(C)C)cs1)c1ccccc1`, the IC50 in assay [1] and in assay [2] was above 25 µM each time.
`CC1(c2csc(NC(=O)Cc3cn(Cc4ccccc4)c4ccc(Cl)cc34)n2)CC1`: the IC50 was above 25 µM in assay [1] and 0.908 µM in assay [2].
On to `CC(C)(C)c1csc(NC(=O)c2cc3ccc(Cl)cc3s2)n1`, for which the IC50 in assay [1] and in assay [2] was above 25 µM each time.
For `C#Cc1ccc2sc(C(=O)Nc3nc(C(C)(C)C)cs3)cc2c1`, the IC50 in assay [1] and in assay [2] was above 25 µM in each case.
For the compound `CC(C)(C)c1nc(NC(=O)Cc2csc3ccc(Cl)cc23)sc1Cl`, the figures for the 50% inhibitory concentration (IC50) in assay [1] and in assay [2] were above 25 µM and 11.8 µM, respectively.
Take `Cc1cc(C(=O)Nc2nc(C3CC3)cs2)cs1`: the half-inhibitory concentration (IC50) in assay [1] and in assay [2] was above 25 µM in each case.
On to `COc1cccc(C(=O)Nc2nc(C(C)(C)C)cs2)c1`, for which the IC50 in assay [1] and in assay [2] was above 25 µM each time.
Consider `CC(C)(C)c1csc(NC(=O)Cn2ccc3ccccc32)n1`, for which the IC50 in assay [1] was above 25 µM; in assay [2] it was 8.75 µM.
For `CC(C)(C)c1csc(NC(=O)c2cc3cc(C(F)(F)F)ccc3s2)n1` the same measures were above 25 µM and 16.5 µM.
On to `CC(C)(C)c1csc(NC(=O)Cc2cn(C(=O)c3ccccc3)c3ccc(Cl)cc23)n1`, for which the 50% inhibitory concentration (IC50) is above 25 µM in assay [1] and 2.05 µM in assay [2].
The like results for `CC(C)(C)c1csc(NC(=O)Cc2cc3ccccc3s2)n1` were, in that order, above 25 µM and above 25 µM.
Compound `Cc1cc(C(=O)Nc2nc(C(C)C)cs2)cs1` yielded an IC50 in assay [2] of 22.8 µM.
As for `CC[C@@H](C(=O)Nc1nc(C(C)(C)C)cs1)c1ccccc1`, the IC50 in assay [1] is above 25 µM; in assay [2], 9.54 µM.
With `CC(C)(C)c1csc(NC(=O)Cc2coc3ccccc23)n1`, the IC50 is above 25 µM in assay [1] and 5.3 µM in assay [2].
As for `CC(C)(C)c1csc(NC(=O)CN2CCOCC2)n1`, the IC50 in assay [1] and in assay [2] was above 25 µM in each case.
Take `CC(C)(C)c1csc(NC(=O)c2sc3ccccc3c2Cl)n1`: the IC50 in assay [1] and in assay [2] was above 25 µM each time.
`CC(C)CC(C(=O)Nc1nc(C(C)(C)C)cs1)c1csc2ccc(Cl)cc12` (stereo not given): the IC50 in assay [1] was above 25 µM; in assay [2] it was 6.53 µM.
Regarding `CC(C)(C)c1csc(NC(=O)Cc2cc(F)cc(Cl)c2)n1`, the IC50 is above 25 µM in assay [1] and 1.91 µM in assay [2].
For `Cn1cc(C(=O)Nc2nc(C(C)(C)C)cs2)cn1`, in assay [2], the IC50 turned out to be 22.2 µM.
